The SangsterLogP compilation

Q: With `CC(F)(Cl)Cl` as the molecule, how does the logP read?
A: Its logP is 1.95.

Q: Which logP does the source give for `FC(Cl)(Cl)Cl` here?
A: The logP was 2.26.

Q: Which logP does the source give for `FCC(F)(F)F` here?
A: The logP was 1.06.

Q: Which logP does the source give for `FC(F)=CCl` here?
A: Its logP is 1.52.

Q: Which logP does the source give for `FC(Cl)C(F)(F)F` (stereo unspecified) here?
A: The logP was 1.75.

Q: Which logP does the source give for `FC(C(F)(F)F)C(F)(F)F` here?
A: The logP was 2.22.

Q: With `FCC(F)(F)Cl` as the molecule, how does the logP read?
A: Its logP is 1.45.

Q: For `FC(F)(F)F`, which logP is on record?
A: The logP was 1.36.

Q: Which logP does the source give for `FC(F)C(F)(F)F` here?
A: Its logP is 1.45.

Q: Which logP does the source give for `FCC(F)Cl` (stereo unspecified) here?
A: The logP was 1.62.

Q: For `FC(F)=C(F)C(F)(F)F`, which logP is on record?
A: The logP was 1.98.
